# Measured values from US11945812B2, “Annulated 2-amino-3-cyano thiophenes and derivatives for the treatment of cancer” (Boehringer Ingelheim International GmbH, priority 2020, dated 2024).
# Read-outs that look alike come from different tables or passages of the source.
# Assays:
# [1] = Plasma protein binding (equilibrium dialysis), serum 10% FCS in PBS; type: in vitro ADME; details: bovine, 10% FCS in PBS (serum), read-out: PPB 10% FCS fu
# Experimental: (§1) Plasma Protein Binding (PPB)
# (§2) Binding of test compound to plasma was determined using equilibrium dialysis (ED) and quantitative mass spectrometry interfaced with liquid chromatography (LC-MS). In brief, ED was performed with dialysis devices consisting of two chambers separated by a semipermeable membrane with a molecular weight cut-off of 5-10 kg/mol. One chamber was filled with commercially sourced plasma (mouse and human plasma, respectively) or serum (10% FCS in PBS) containing 1-10 μmol/L test compound and the other chamber was filled with phosphate-buffer saline (PBS) with or without dextran. The dialysis chamber was incubated for 3-5 hours at 37° C. After incubation, protein was precipitated from aliquots of each chamber and the concentration of test compound in the supernatant of the plasma-containing compartment (cplasma) and of the buffer-containing compartment (Cbuffer) was determined by LC-MS. The fraction of unbound test compound (not bound to plasma) (fu) was calculated according to the following equation: […]
# [2] = biological target: T1, KRAS G12C::SOS1 protein-protein interaction (Homo sapiens, UniProt P01116, C118S/C51S/C80L/G12C); assay: KRAS::SOS1 AlphaScreen binding assay; details: KRAS G12C::SOS1 AlphaScreen
# T1 construct: His6 (N); host or cells: E. coli
# T1 sequence (P01116 1-169 isoform P01116-2 G12C/C51S/C80L/C118S): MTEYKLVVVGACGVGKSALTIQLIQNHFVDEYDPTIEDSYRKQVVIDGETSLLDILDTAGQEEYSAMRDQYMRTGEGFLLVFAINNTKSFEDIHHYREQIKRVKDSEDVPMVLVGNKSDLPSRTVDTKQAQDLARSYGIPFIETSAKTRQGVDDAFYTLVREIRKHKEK
# Excerpt: KRAS::SOS1 AlphaScreen Binding Assay
# Reagents: • GST-tagged SOS1 (564_1049_GST_TEV_ECO) produced in-house • GST-TEV-SOS1 (564-1049) is purchased from Viva Biotech Ltd. • The expression construct of KRAS G12C (amino acids 1-169 of reference sequence P01116-2 (uniprot), with additional mutations: C51S, C80L, and C118S) containing a C-terminal avi-tag was obtained by gene synthesis (GeneArt, Thermo Fisher) in donor vector (pDONR-221) and transferred by recombinant cloning into pDEST17 vector bearing an N-terminal His6-tag. The protein was expressed in E. coli and the purified protein was biotinylated with the E. coli biotin ligase (BirA) before usage. • GDP (Sigma Cat No G7127) • AlphaLISA Glutathione Acceptor Beads (PerkinElmer, Cat No AL109) • AlphaScreen Streptavidin Donor Beads (PerkinElmer Cat No 6760002) • Assay plates: Proxiplate-384 PLUS, white (PerkinElmer, Cat No 6008289)
# Assay Buffer: • 1×PBS • 0.1% BSA • 0.05% Tween 20
# 7.5 nM (final assay concentration) KRAS G12C, 10 μM (final assay concentration) GDP and 5 nM (final assay concentration) GST-SOS1 are mixed in assay buffer prior to use and kept at room temperature.
# AlphaLISA Glutathione Acceptor Beads and AlphaScreen Streptavidin Donor Beads are mixed in assay buffer at a concentration of 10 μg/mL (final assay concentration) each prior to use and kept at room temperature.
# Compounds are diluted to a final start concentration of 100 μM and are tested in duplicate. Assay-ready plates (ARPs) are generated using an Access Labcyte Workstation with a Labcyte Echo 550 or 555 accoustic dispenser. For compound a start concentration of 100 μM, 150 nL of compound solution is transferred per well in 11 concentrations in duplicate with serial 1:5 dilutions.
# The assay is run using a fully automated robotic system in a darkened room below 100 Lux. 10 μL of KRAS::SOS1 GDP mix is added into columns 1-24 to the 150 nL of compound solution (final dilution in the assay 1:100, final DMSO concentration 1%).
# After 30 minutes incubation time 5 μL of bead mix is added into columns 1-23. Plates are kept at room temperature in a darkened incubator. After further 60 minutes incubation, the signal is measured using a PerkinElmer Envision HTS Multilabel Reader using the AlphaScreen specifications from PerkinElmer. Each plate contains the following controls: • diluted DMSO+KRAS::SOS1 GDP mix+bead mix • diluted DMSO+KRAS::SOS1 GDP mix
# IC50 values are calculated and analyzed using a 4 parametric logistic model.
# Tables of example compounds disclosed herein contain IC50 values determined using the above assay.
# [3] = Plasma protein binding (equilibrium dialysis), human plasma; type: in vitro ADME; details: read-out: PPB human fu
# Experimental: as §1, §2
# [4] = tested on: ERK phosphorylation in NCI-H358_Cas9_SOS2; assay: ERK phosphorylation assay 2 (AlphaLISA SureFire Ultra p-ERK1/2), SOS2 knock-out; type: cell-based; details: Homo sapiens, NCI-H358; assay 2 (marked with *); read-out: IC50 H358 pERK
# Excerpt: ERK Phosphorylation Assay
# Materials Used for the Assay;
# [5] = biological target: Ba/F3 cells bearing a KRAS G12C mutation (Homo sapiens, UniProt P01116, G12C, cells depend on it); assay: Ba/F3 cell model proliferation assay (AlamarBlue, 72 h); type: cell-based
# Sequence of Ba/F3 cells bearing a KRAS G12C mutation (P01116 whole entry G12C): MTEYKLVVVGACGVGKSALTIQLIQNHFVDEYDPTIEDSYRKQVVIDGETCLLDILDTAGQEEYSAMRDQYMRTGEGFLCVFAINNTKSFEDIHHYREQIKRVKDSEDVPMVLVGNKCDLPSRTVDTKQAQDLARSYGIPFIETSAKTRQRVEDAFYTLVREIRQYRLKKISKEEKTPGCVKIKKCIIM
# Experimental: Ba/F3 Cell Model Generation and Proliferation Assay
# Plasmids containing KRASG12 mutants were obtained from GeneScript. To generate KRASG12-dependent Ba/F3 models, Ba/F3 cells were transduced with retroviruses containing vectors that harbor KRASG12 isoforms. Platinum-E cells (Cell Biolabs) were used for retrovirus packaging. Retrovirus was added to Ba/F3 cells. To ensure infection, 4 μg/mL polybrene was added and cells were spinfected. […] Cells with an infection efficiency of 10% to 20% were further cultivated and puromycin selection with 1 μg/mL was initiated. As a control, parental Ba/F3 cells were used to show selection status. Selection was considered successful when parental Ba/F3 cells cultures died. To evaluate the transforming potential of KRASG12 mutations, the growth medium was no longer supplemented with IL-3. Ba/F3 cells harboring the empty vector were used as a control. Approximately ten days before conducting the experiments, puromycin was left out.
# All treatments were performed in technical duplicates. The assay is run using a fully automated robotic system. Treated cells were incubated for 72 h at 37° C. with 5% CO2. AlamarBlue™ (ThermoFisher), a viability stain, was added and fluorescence measured in the PerkinElmer Envision HTS Multilabel Reader.
# [6] = Plasma protein binding (equilibrium dialysis), mouse plasma; type: in vitro ADME; details: read-out: PPB mouse fu
# Experimental: as §1, §2
# [7] = Ba/F3 KRAS G12C cells, 72 h, 10% FCS, uncorrected, read-out: IC50 Ba/F3 KRASG12C
# [8] = corrected by plasma protein binding in 10% FCS (fraction unbound), read-out: IC50 Ba/F3 KRASG12C (corrected)
fraction unbound [1],IC50 [2] [nM],fraction unbound [3],IC50 [4] [nM],"GI50 [5, 7] [nM]","GI50 [5, 8] [nM]",fraction unbound [6],SMILES
0.148,5,0.02,13.1,6.7,0.99,0.003,C=CC(=O)N1[C@H](C)CN(c2cc(O[C@@H](C)[C@@H]3CCCN3C)nc(-c3cc([C@@]4(C)CCCc5sc(N)c(C#N)c54)no3)n2)C[C@@H]1C [Ic-5]
0.066,6,0.016,12.6,16,1.06,0.01,COC/C=C/C(=O)N1CCN(c2cc(O[C@@H](C)[C@@H]3CCCN3C)nc(-c3cc([C@@]4(C)CCCc5sc(N)c(C#N)c54)on3)n2)[C@H](C)C1 [Ib-14]
0.058,3,0.019,6.7,3.8,0.22,0.004,C=CC(=O)N1CCN(c2cc(O[C@@H](C)[C@@H]3CCCN3C)nc(-c3cc([C@@]4(C)CCCc5sc(N)c(C#N)c54)on3)n2)CC12CC2 [Ib-5]
0.109,3,0.028,12.3,5.5,0.6,,C=CC(=O)N1CCN(c2cc(O[C@@H](C)[C@@H]3CCCN3C)nc(-c3cc([C@@]4(C)CCCc5sc(N)c(C#N)c54)no3)n2)CC12CC2 [Ic-3]
0.075,1.6,0.032,1.7,1.8,0.14,0.011,C=CC(=O)N1CCN(c2cc(O[C@@H](C)[C@@H]3CCCN3C)nc(-c3cc([C@@]4(C)CCCc5sc(N)c(C#N)c54)on3)n2)[C@H](C)C1 [Ib-1]
0.476,1.6,,0.7,0.4,0.19,0.021,C=CC(=O)N1CCN(c2cc(O[C@@H](C)[C@@H]3CCCN3C)nc(-c3cc([C@@]4(C)CCCc5sc(N)c(C#N)c54)sn3)n2)CC1 [Id-1]
0.063,13,0.013,32.8,13.1,0.83,0.005,C=C(F)C(=O)N1CCN(c2cc(O[C@@H](C)[C@@H]3CCCN3C)nc(-c3cc([C@@]4(C)CCCc5sc(N)c(C#N)c54)on3)n2)[C@H](C)C1 [Ib-10]
0.338,1.7,,3.1,3.2,1.08,0.003,C=CC(=O)N1CCN(c2cc(O[C@@H](C)[C@@H]3CCCN3C)nc(-c3cc([C@@]4(C)CCCc5sc(N)c(C#N)c54)sn3)n2)CC12CC2 [Id-5]
0.521,1.6,,1.1,0.2,0.1,0.003,C=CC(=O)N1CCC(Oc2cc(O[C@@H](C)[C@@H]3CCCN3C)nc(-c3cc([C@@]4(C)CCCc5sc(N)c(C#N)c54)sn3)n2)CC1 [Id-6]
0.371,1.7,0.014,2.2,1.3,0.48,0.005,C=CC(=O)N1[C@@H](C)CN(c2cc(O[C@@H](C)[C@@H]3CCCN3C)nc(-c3cc([C@@]4(C)CCCc5sc(N)c(C#N)c54)sn3)n2)C[C@@H]1C [Id-4]
0.055,1.6,0.021,2.4,1.7,0.09,0.007,C=CC(=O)N1[C@@H](C)CN(c2cc(O[C@@H](C)[C@@H]3CCCN3C)nc(-c3cc([C@@]4(C)CCCc5sc(N)c(C#N)c54)on3)n2)C[C@@H]1C [Ib-4]
0.078,41,,134,35.6,2.78,0.003,C=C(F)C(=O)N1[C@@H](C)CN(c2cc(O[C@@H](C)[C@@H]3CCCN3C)nc(-c3cc([C@@]4(C)CCCc5sc(N)c(C#N)c54)no3)n2)C[C@@H]1C [Ic-8]
0.083,1.9,0.027,3.4,1.8,0.15,0.011,C=CC(=O)N1[C@@H](C)CN(c2cc(O[C@@H](C)[C@@H]3CCCN3C)nc(-c3cc([C@@]4(C)CCCc5sc(N)c(C#N)c54)no3)n2)C[C@@H]1C [Ic-4]
0.252,44,0.02,56.8,35.3,8.9,0.001,C=CC(=O)N1CCC(Oc2cc(N3CCN(C)C[C@@H]3C)nc(-c3cc(C4(C)CCCc5sc(N)c(C#N)c54)no3)n2)CC1 (stereo partly drawn) [Ic-7]
0.434,1.6,0.009,5.4,2,0.87,0.003,C=CC(=O)N1[C@H](C)CN(c2cc(O[C@@H](C)[C@@H]3CCCN3C)nc(-c3cc([C@@]4(C)CCCc5sc(N)c(C#N)c54)sn3)n2)C[C@@H]1C [Id-2]
0.259,29,0.043,46.2,87,22.5,0.008,COC/C=C/C(=O)N1CCN(c2cc(O[C@@H](C)[C@@H]3CCCN3C)nc(-c3cc(C4(C)CCCc5sc(N)c(C#N)c54)no3)n2)CC1 (stereo partly drawn) [Ic-9]
0.045,15,,44.4,12.6,0.57,0.003,C=C(F)C(=O)N1[C@@H](C)CN(c2cc(O[C@@H](C)[C@@H]3CCCN3C)nc(-c3cc([C@@]4(C)CCCc5sc(N)c(C#N)c54)on3)n2)C[C@@H]1C [Ib-11]
0.167,3,0.059,2,1.6,0.27,0.014,C=CC(=O)N1CCN(c2cc(O[C@@H](C)[C@@H]3CCCN3C)nc(-c3cc(C4(C)CCCc5sc(N)c(C#N)c54)on3)n2)CC1 (stereo partly drawn) [Ib-6]
